US12503510B2, “Small shedding blocking agents” (BIOND BIOLOGICS LTD., priority 2019, dated 2025)
Like-named read-outs stand apart in the source and are kept apart here.

Columns and labels:
human PBMCs [1] = experiment: Soluble CD28 generation in SEB or CMV stimulated PBMCs, human CD28 ELISA; format: cell-based; details: SEB 1 ng/mL; inhibitor 0.01-1 μM
Description: Protease Inhibitors—Protease inhibitors were added at the indicated concentrations at the start of each experiment. In week long assays another portion of the inhibitors was added after 3 days at the final concentration. Protease inhibitors used are TAPI-1 (Cayman, Cat. No. 18505), GM6001 (Santa Cruz, Cat. No. SC-203979), TMI-1 (Sigma, Cat. No. PZ0336) and GI254023X (Sigma, Cat. No. SML0789). Where mentioned the protease cocktail was composed with a mixture of TAPI-1 and GM6001 at equimolar ratio.

human PBMCs [2] = tested on: human PBMCs
SCC-25 cells = experiment: Co-culture of SCC-25 cancer cell line with monocytes in trans-well assay; format: cell-based, human
Description: Co-culture of SCC-25 cancer cell line with monocytes in trans-well based assay—4×10^4 SCC-25 cells were plated on the bottom of 24 well plate with 1×10^5 monocytes placed on cell culture insert (Millipore, Cat. No. MCHT241148) with or without indicated treatments for 4 days in starvation media without serum.
Next, cells of the head and neck cancer cell line SCC-25 were incubated either alone or with monocytes in a trans-well assay. SCC-25 cells grown alone were administered IL-6 as a positive control, and indeed cell proliferation, as measured by MTT (FIG. 9C, upper) and as measured by % confluency (FIG. 9C, lower), was increased.

[3] = tested on: autologous monocytes and CD3 T cells; experiment: Autologous monocytes CD3 MLR with CMV peptide; format: cell-based, human
Description: The mixed cells were stimulated for 5 days with CMV peptide (0.5 μg/mL) with and without increasing concentrations of recombinant human sCD28.
The MLR was run as before only with and without sCD28 and with and without an anti-PD1 antibody (MK3475, 5 μg/mL) (FIG. 8B).

human PBMCs [4] = experiment: SEB or CMV stimulated PBMCs with anti-PD1 and soluble CD28; format: cell-based
human PBMCs [5] = experiment: CMV stimulation of PBMCs with ectopic recombinant human CD28 or CTLA-4, cytokine ELISA/multiplex; format: cell-based; details: CMV 0.5 μg/mL
human PBMCs [6] = experiment: Lymphocyte clustering of SEB stimulated PBMCs (IncuCyte); format: cell-based; details: SEB 1 ng/mL
Description: Next, human PBMCs were stimulated with SEB (1 ng/mL) without or in the presence of recombinant human CD28. Human IgG was used as control. Lymphocyte clustering, a hallmark of immune activation was monitored using the IncuCyte® S3 Live-Cell, with pictures taken every 12 hours. […] It is well established that during in-vitro immune response antigen presenting cells (APC) cluster with one another and with other cell types, and clustering is essential for the antigen specific activation of resting lymphocytes.

isolated human monocytes = experiment: Stimulation of monocytes with recombinant human CD28 (IDO, PD-L1, PD-L2); format: cell-based; details: IFNγ 1000 U/mL, recombinant human CD28 10 μg/mL
Description: Stimulation of monocytes with recombinant human CD28—1.5×10^6 monocytes were plated at 24 well plate in RPMI medium with […] IFN gamma (R&D system, Cat. No. 285-IF) in the presence of recombinant human CD28 at the indicated concentrations for 48 hrs. The generated cell populations were tested for the indicated phenotypes by FACS analysis of relevant markers (IDO, PD-L1 and PD-L2) and by analysis of secretion of characteristic cytokines (IL-6).
The enzyme indoleamine 2,3-dioxygenase (IDO) has been implicated in immune modulation through its ability to catabolize the essential amino acid Tryptophan. It is expressed by different immune cells and also by many cancer cells. Tryptophan shortage inhibits T lymphocytes maturation and proliferation, while Kynurenine, the end product of tryptophan catabolism, is also known as immunosuppressive metabolite that promotes immune tolerance in various physiological and pathophysiological conditions. To test the effect of sCD28 on IDO, isolated human monocytes were stimulated for 48 hr with IFNγ (1000 U/mL) in the presence of control human IgG or with recombinant human CD28 (10 μg/mL). After incubation, the monocytes were stained intracellularly for human IDO (FIG. 7E). To facilitate intracellular staining the cells were fixed and permeabilized with BD Cytofix/Cytoperm Buffer Kit.
In order to elucidate the mechanism by which sCD28 inhibits the pro-activation effect of anti-PD-1 therapy, the expression of PD-1 ligands on immune cells in the presence of sCD28 was examined. Isolated human monocytes were stimulated for 48 hours with IFNγ (1000 U/mL) in the presence of control human IgG (10 μg/mL) or with recombinant human CD28 (10 μg/mL). After incubation the monocytes were stained for PD-L1 (FIG. 8C, left) and PD-L2 (FIG. 8C, right).

PBMC of cancer patients = experiment: SEB stimulated PBMC of cancer patients with sCD28 and MK-3475; format: cell-based, human; details: SEB 5 ng/mL, 3 days
[7] = tested on: isolated CD3 human T cells; experiment: T cells stimulation with OKT3 and CD80-Fc, IFN gamma; format: cell-based; details: OKT3 2 μg/mL
Description: T cells stimulation with OKT3—0.1×10^6 isolated CD3 T cells (from healthy donors) were stimulated with indicated amount of anti-CD3 clone OKT3 for 48-72 hr at 37° C. When stated recombinant human CD80-Fc (2 μg/mL, R&D system) was added in soluble form. Antibodies or VHHs to CD28 or controls were added at the indicated concentration in soluble form.
CD80 is one of the two main ligands for mCD28 along with CD86. The extracellular domain of CD80 fused to an Fc moiety has been used as an immune stimulatory molecule and is under investigation as a cancer therapy. In order to examine the effect of sCD28 on CD80-Fc efficacy, isolated CD3 human T cells were stimulated with plate bound anti-CD3 antibody (OKT3, 2 μg/mL) in the presence of 2 μg/mL soluble recombinant human CD80-Fc.

isolated PBMCs = experiment: CMV stimulated PBMC with constant sCD28 and CD80-Fc titration; format: cell-based, human; details: CMV peptide 3 days
[8] = tested on: H22 hepatocellular carcinoma cells; experiment: H22 syngeneic mouse model; format: in vivo; details: Balb/c mice, H22 allograft, with anti-PD-1
[9] = CMV peptide 0.5 μg/mL, 5 days, increasing sCD28

Molecule: CNC(=O)[C@@H](NC(=O)[C@H](CCCc1ccccc1)[C@H](C)N(O)C=O)C(C)(C)C [GI254023X]
- sCD28 release from activated immune cells (human PBMCs [1]): almost complete inhibition of sCD28 release
- viability of the immune cells (MTT) (human PBMCs [2]; SEB 1 ng/mL, with vs without ADAM inhibitor): no significant difference

Molecule: CC#CCOc1ccc(S(=O)(=O)N2CCSC(C)(C)[C@@H]2C(=O)NO)cc1 [TMI-1]
- viability of the immune cells (MTT) (human PBMCs [2]): no significant difference

Molecule: IL-6: cytokine given to SCC-25 cells as a positive control [reference compound]
- cell proliferation (MTT and % confluency) (SCC-25 cells; SCC-25 cells grown alone, positive control): increased

Molecule: Pembrolizumab [MK-3475, reference compound]
- IFN gamma secretion ([3]; MK3475 5 μg/mL): increased IFN gamma secretion
- TGF beta secretion ([3]; MK3475 5 μg/mL): decreased TGF beta secretion
- proinflammatory cytokine secretion (IFN gamma and IL-2) (human PBMCs [4]; MK3475 5 μg/mL, 3 days): increased proinflammatory cytokine secretion

Molecule: sCD28: recombinant human CD28 lacking the transmembrane and cytoplasmic domains
- IFN gamma secretion (human PBMCs [5]): dose-dependent inhibition of IFN gamma secretion
- IL-6 secretion (human PBMCs [5]): increase IL-6 cytokine secretion
- interleukin-10 secretion (human PBMCs [5]): elevation
- lymphocyte cluster formation (human PBMCs [6]): diminish the amount and size of cluster formation
- IFN gamma secretion [3, 9]: inhibit IFN gamma secretion
- IL-1B secretion [3, 9]: increasing the secretion
- IL-10 secretion [3, 9]: increasing the secretion
- TGF beta secretion [3, 9]: increasing the secretion
- effect of MK-3475 in the presence of sCD28 ([3]; MK3475 5 μg/mL with sCD28): significantly reduced
- PD-L1 expression on monocytes (isolated human monocytes; 48 hours): upregulated
- PD-L2 expression on monocytes (isolated human monocytes; 48 hours): upregulated
- IDO expression in monocytes (isolated human monocytes; 48 hr): strongly enhanced IDO expression
- effect on MK-3475 immune activation (human PBMCs [4]; sCD28 2 and 10 μg/mL combined with MK3475 5 μg/mL): abrogated completely this immune activation effect
- effect on MK-3475 (PBMC of cancer patients; combination): rendered the effect of MK-3475 nonexistent
- concentration of human IFN gamma in the supernatant (PBMC of cancer patients; with or without MK-3475): greatly reduced
- cell proliferation (MTT and % confluency) (SCC-25 cells; coculture with monocytes): by far the greatest increase
- effect on CD80-Fc secondary activation ([7]; constant CD80-Fc, titration of sCD28): counteracted the secondary activation effect of the CD80-Fc
- CD80-Fc needed for immune response in presence of sCD28 (isolated PBMCs): an increased amount of CD80-Fc was required
- effect on anti-PD-1 therapy [8]: nearly completely abrogated in two of the mice

B1: CD80-Fc: extracellular domain of CD80 fused to an Fc moiety (protein)
chain: VIHVTKEVKEVATLSCGHNVSVEELAQTRIYWQKEKKMVLTMMSGDMNIWPEYKNRTIFDITNNLSIVILALRPSDEGTYECVVLKYEKDAFKREHLAEVTLSVKADFPTPSISDFEIPTSNIRRIICSTSGGFPEPHLSWLENGEELNAINTTVSQDPETELYAVSSKLDFNMTTNHSFMCLIKYGHLRVNQTFNWNTTKQEHFPDN
modifications: left off: a dimerising Fc or GST
notes: extracellular domain of CD80 fused to an Fc moiety
- IFN gamma secretion ([7]; CD80-Fc 2 μg/mL): increased IFN gamma secretion
